Laboratory results as given in publication PMC9227781, “Inhibitors of O-Acetylserine Sulfhydrylase with a Cyclopropane-Carboxylic Acid Scaffold Are Effective Colistin Adjuvants in Gram Negative Bacteria” (Pharmaceuticals, 2022).
Read-outs that look alike come from different tables or passages of the source.

How the values were obtained:
[1] = tested on: E. coli ATCC 25922; assay: MIC by broth microdilution, E. coli; assay type: cell-based, Escherichia coli; conditions: Escherichia coli, ATCC25922; compound alone, MHB, 24 h at 37 °C; read-out: MIC (μg/mL) E.coli ATCC 25922
Description: (§1) MIC values were evaluated following CLSI guidelines with some modifications, as referred to in previous work. Twofold dilutions 25.6–0.05 mg/mL of the tested compounds were performed in DMSO in separate 96-well microtiter U-plates (Greiner, Milan, Italy). In a different 96-well microtiter U-plate, for each well of the replicates, 49 µL of broth medium were added. Then, in each well of the plate, one microliter of each compound at variable dilution in DMSO was added. For each test, three independent experiments with three replicates each were performed. Tested reference bacterial strains (E. coli ATCC25922; S. Typhimurium ATCC14028; K. pneumoniae ATCC13883) were brought to the logarithmic phase of growth in MHB medium by incubation at 37 °C for 24 h. After incubation, bacterial suspensions were centrifuged (2000 rpm, 4 °C for 20 min), and then the pellets were resuspended in 100 mM phosphate buffer, pH 7.0, to reach a final bacterial concentration of 10^8 CFU/mL, adjusted by spectrophotometry (OD620nm ranged between 0.08–0.13). The obtained suspensions were further diluted 1:100 in broth medium to reach a bacterial concentration of 10^6 CFU/mL. Fifty µL of the bacterial suspension containing 10^6 CFU/mL were inoculated into each well within 30 min, to obtain a final concentration of 5 × 10^5 CFU/mL in a total volume of 100 µL. The final dilution range tested was 256–0.5 µg/mL. Growth and sterility controls were performed for each strain and for each tested compound. Plates were then incubated for 24 h at 37 °C in a static aerobic atmosphere. After incubation, plates were read by unaided eye with a microtiter reading mirror and then the OD of each well of the plates was measured spectrophotometrically at 620 nm. MIC values were calculated as the arithmetic mean ± standard deviation (SD) of the unaided eye reading and the inhibition of growth for each tested dilution was calculated from the OD values (mean ± SD). A quality control microorganism (E. coli ATCC 25922) was tested periodically to validate the accuracy of the procedure.

[2] = tested on: S. Typhimurium ATCC14028; assay: MIC by broth microdilution, S. Typhimurium; assay type: cell-based, Salmonella enterica serovar Typhimurium; conditions: Salmonella enterica; compound alone, MHB, 24 h at 37 °C; read-out: MIC (μg/mL) S. Typhimurium ATCC14028
Description: as §1

[3] = target: T1, StOASS-A (Salmonella typhimurium, UniProt P0A1E3); assay: Fluorescence binding assay on purified recombinant StOASS-A; parameters: species or system S. Typhimurium
T1 construct: His-tag (with TEV site) (cleaved yes); made in house; host or cells: E. coli Rosetta (DE3)
T1 sequence (P0A1E3 whole entry): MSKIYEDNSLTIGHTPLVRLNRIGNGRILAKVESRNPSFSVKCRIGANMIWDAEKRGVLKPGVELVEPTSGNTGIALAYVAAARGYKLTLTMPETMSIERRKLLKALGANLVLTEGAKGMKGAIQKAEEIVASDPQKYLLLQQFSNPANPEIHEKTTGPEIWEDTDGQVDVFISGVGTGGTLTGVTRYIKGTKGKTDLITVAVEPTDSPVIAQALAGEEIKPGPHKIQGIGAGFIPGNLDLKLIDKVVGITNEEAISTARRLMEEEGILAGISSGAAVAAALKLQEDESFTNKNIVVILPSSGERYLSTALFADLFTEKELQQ
Description: (§2) The affinity of the compounds for StOASS-A and StOASS-B was determined on the purified recombinant proteins by an in vitro fluorescence binding assay. Measurements were carried out at 20 °C in a 3 mm pathlength quartz microcuvette in 100 mM HEPES, 5% DMSO (Applichem, Darmstadt, Germany), pH 7.0, using a Fluoromax-4 (Horiba Jobin-Yvon, Kyoto, Japan) spectrofluorometer. Emission spectra of solutions containing 0.2–1.0 μM StOASS, upon excitation of the pyridoxal 5′-phosphate cofactor at 412 nm, in the presence of increasing concentrations of compounds were collected; fluorescence intensities at 500 nm were plotted to compound concentration and data were fitted to a binding isotherm: I=I0+ΔI·compound/KD+compound where I is the fluorescence emission intensity at 500 nm in the presence of a given concentration of compound, I0 is the initial fluorescence emission in the absence of ligands, ΔI is the amplitude of the fluorescence emission change and KD is the dissociation constant. When the KD was lower than the protein concentration, data were fitted to the quadratic equation: I=I0+ΔI·OASS+compound+KD−OASS+compound+KD^2−4·OASS·compound/2
(§3) Data were collected in duplicate.
(§4) Esters were tested up to a concentration of 100 μM and no binding was observed.

[4] = target: T2, StOASS-B (Salmonella typhimurium, UniProt P29848); assay: Fluorescence binding assay on purified recombinant StOASS-B
T2 construct: His-tag (with TEV site) (cleaved yes); made in house; host or cells: E. coli Rosetta (DE3)
T2 sequence (P29848 1-303): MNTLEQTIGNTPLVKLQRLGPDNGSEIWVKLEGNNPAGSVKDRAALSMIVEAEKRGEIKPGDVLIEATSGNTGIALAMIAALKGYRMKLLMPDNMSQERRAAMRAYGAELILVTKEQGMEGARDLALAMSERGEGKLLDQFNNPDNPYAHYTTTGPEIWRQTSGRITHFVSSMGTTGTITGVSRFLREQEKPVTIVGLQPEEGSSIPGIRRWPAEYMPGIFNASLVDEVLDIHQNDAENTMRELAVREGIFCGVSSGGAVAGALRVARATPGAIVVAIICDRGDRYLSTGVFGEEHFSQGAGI
Description: as §2, §3, §4

[5] = tested on: K. pneumoniae ATCC13883; assay: MIC by broth microdilution, K. pneumoniae; assay type: cell-based, Klebsiella pneumoniae; conditions: Klebsiella pneumoniae, ATCC13883; compound alone, MHB, 24 h at 37 °C; read-out: MIC (μg/mL) K. pneumoniae ATCC13883
Description: as §1

[6] = tested on: MDBK cells; assay: Cytotoxicity assay (MTT) on MDBK cells; assay type: cell-based, bovine; conditions: 32, 16, 8 µg/mL; MTT test
Description: The cytotoxicity assay was performed using the 3-(4,5-dimethylthiazol-2-yl)-2,5-diphenyltetrazolium bromide (MTT) test, following the procedure used by Donofrio et al.. MDBK cells were cultured on microtiter tissue culture plates in DMEM medium for 24 h at 37 °C in the presence of 5% CO2. After incubation, when the cell monolayer was at confluence, an aliquot of 1 µL of UPAR415 in DMSO at different concentrations was added in each well, containing a volume of 100 µL of DMEM medium and MDBK cells, and then the plates were reincubated at the same conditions. After incubation, 10 µL of MTT at 200 mg/mL (3-(4,5-dimethylthiazol-2-yl)-2,5-diphenyltetrazolium bromide) was added to each well and incubated at 37 °C for 6 h. At the end of the incubation, 100 µL of the solubilization solution (10% SDS in 0.01 M HCl) was added to each well and then incubated overnight. The MTT compound, a yellow tetrazolium salt, is reduced by mitochondrial enzymes (succinate dehydrogenase) of metabolically active eukaryotic cells to insoluble formazan crystals. In the presence of metabolically active cells, after the addition of a detergent solution (10% SDS in […]) that allows the formazan to be released from the cells, a violet color is seen in the medium. Instead, in the presence of non-viable cells, MTT is not reduced to formazan and therefore the solution will remain yellow.
After incubation, plates were read with a spectrophotometer at 620 nm. Positive controls (PC)—without any compounds—and PCs with 1% DMSO were performed for each plate and three replicates for two independent experiments were performed for each assay.

[7] = 20 °C, 100 mM HEPES, 5% DMSO, pH 7.0, racemic mixture, esters tested up to 100 μM
[8] = 20 °C, 100 mM HEPES, 5% DMSO, pH 7.0, racemic mixture, esters tested up to 100 μM, read-out: KD (μM) OASS-A

Row | SMILES | MIC [1] [µg/mL] | MIC [2] [µg/mL] | KD (μM) OASS-A [3, 7] | Kd [3, 8] [µM] | Kd [4] [µM] | MIC [5] [µg/mL] | Kd [3] [µM] | KD (μM) OASS-B [4, 7] | Kd ([4]; 20 °C, 100 mM HEPES, 5% DMSO, pH 7.0, racemic mixture, esters tested up to 100 μM, read-out: KD (μM) OASS-B) [µM] | Toxicity on viability of MDBK cells [6]
1 | Cc1ccc(C[C@@]2(C(=O)O)C[C@H]2c2cccc(-c3cc(O)cc(F)c3)c2)cc1 (relative stereo) [Compound 9e, trans-2-(3′-fluoro-5′-hydroxy-[1,1′-biphenyl]-3-yl)-1-(4-methylbenzyl)cyclopropanecarboxylic acid] | > 512 | > 512 | low nanomolar range | 0.035 ± 0.003 | 0.61 ± 0.08 | > 512 | – | – | – | –
2 | Cc1ccc(C[C@@]2(C(=O)O)C[C@H]2c2cccc(-c3cccc(F)c3)c2)cc1 (relative stereo) [Compound 9f, trans-2-(3′-fluoro-[1,1′-biphenyl]-3-yl)-1-(4-methylbenzyl)cyclopropanecarboxylic acid] | > 512 | > 512 | low nanomolar range | 0.051 ± 0.004 | 1.45 ± 0.31 | > 512 | – | – | – | –
3 | Cc1ccc(C[C@@]2(C(=O)O)C[C@H]2c2cccc(-c3cn[nH]c3)c2)cc1 (relative stereo) [Compound 9c, trans-2-(3-(1H-pyrazol-4-yl)phenyl)-1-(4-methylbenzyl)cyclopropanecarboxylic acid] | > 512 | > 512 | – | 1.01 ± 0.38 | 3.05 ± 0.18 | > 512 | – | – | – | –
4 | Cc1ccc(C[C@@]2(C(=O)O)C[C@H]2c2cccc(-c3ccccc3)c2)cc1 (relative stereo) [Compound 9d, trans-2-([1,1′-biphenyl]-3-yl)-1-(4-methylbenzyl)cyclopropanecarboxylic acid] | > 512 | > 512 | – | 2.51 ± 0.61 | 6.8 ± 1.1 | > 512 | – | – | – | –
5 | Cc1ccc(C[C@@]2(C(=O)O)C[C@H]2c2cccc(-c3cnc(N)nc3)c2)cc1 (relative stereo) [Compound 9a, trans-2-(3-(2-aminopyrimidin-5-yl)phenyl)-1-(4-methylbenzyl)cyclopropanecarboxylic acid] | > 512 | > 512 | – | 0.57 ± 0.16 | 1.29 ± 0.09 | > 512 | – | – | – | –
6 | Cc1ccc(C[C@@]2(C(=O)O)C[C@H]2c2cccc(N3CCNCC3)c2)cc1 (relative stereo) [Compound 21i, trans-1-(4-methylbenzyl)-2-(3-(piperazin-1-yl)phenyl)cyclopropanecarboxylic acid] | > 512 | > 512 | good activity | – | – | > 512 | 0.45 ± 0.09 | detrimental effect | 83.8 ± 16.1 | –
7 | Cc1ccc(C[C@@]2(C(=O)O)C[C@H]2c2cccc(N3CCOCC3)c2)cc1 (relative stereo) [Compound 13g, trans-1-(4-methylbenzyl)-2-(3-morpholinophenyl)cyclopropanecarboxylic acid] | > 512 | > 512 | – | 0.1 ± 0.01 | 3.86 ± 0.29 | > 512 | – | – | – | –
8 | Cc1ccc(C[C@@]2(C(=O)O)C[C@H]2c2cccc(-c3c[nH]nc3C)c2)cc1 (relative stereo) [Compound 9b, trans-2-(3-(3-methyl-1H-pyrazol-4-yl)phenyl)-1-(4-methylbenzyl)cyclopropanecarboxylic acid] | > 512 | > 512 | – | 1.86 ± 0.76 | 2.63 ± 0.04 | > 512 | – | – | – | –
9 | CCOC(=O)[C@]1(Cc2ccc(C)cc2)C[C@H]1c1cccc(-c2cc(O)cc(F)c2)c1 (relative stereo) [Compound 8e, trans-ethyl 2-(3′-fluoro-5′-hydroxy-[1,1′-biphenyl]-3-yl)-1-(4-methylbenzyl) cyclopropanecarboxylate] | > 512 | > 512 | No binding | – | – | > 512 | – | No binding | – | high toxicity profiles
10 | CCOC(=O)C1(Cc2ccc(C)cc2)CC1c1cccc(-c2cnc(N)nc2)c1 (centres unmarked) [Compound 8a, ethyl 2-(3-(2-aminopyrimidin-5-yl)phenyl)-1-(4-methylbenzyl)cyclopropanecarboxylate] | > 512 | > 512 | – | – | – | > 512 | – | – | – | –
11 | CCOC(=O)[C@]1(Cc2ccc(C)cc2)C[C@H]1c1cccc(-c2ccccc2)c1 (relative stereo) [Compound 8d, trans-ethyl 2-([1,1′-biphenyl]-3-yl)-1-(4-methylbenzyl)cyclopropanecarboxylate] | > 512 | > 512 | No binding | – | – | > 512 | – | No binding | – | –
12 | Cc1ccc(C[C@@]2(C(=O)O)C[C@H]2c2cccc(N3CCN(C)CC3)c2)cc1 (relative stereo) [Compound 21j, trans-1-(4-methylbenzyl)-2-(3-(4-methylpiperazin-1-yl)phenyl)cyclopropanecarboxylic acid] | > 512 | > 512 | good activity | 0.25 ± 0.06 | 23.6 ± 4.5 | > 512 | – | detrimental effect | – | –
